# Measured values published in ChEMBL document CHEMBL1149060, “Structure of malhamensilipin A, an inhibitor of protein tyrosine kinase, from the cultured chrysophyte Poterioochromonas malhamensis” (J Nat Prod, 1994).
# Test: Inhibition of Rous sarcoma virus pp60v-src
compound,measurement,value
CCCCCCCCC(Cl)C(Cl)C(O)C(Cl)C(Cl)C(Cl)CCCCCCCC/C(Cl)=C\OS(=O)(=O)O (stereo unspecified) [MALHAMENSILIPIN A],IC50,35 µM
